Entries after “also recorded” stand apart in the source; their conditions may differ.
Assays:
mouse cyclin D1 promoter = assay: ChIP of Stat3 and ErbB-2 on the mouse cyclin D1 promoter in C4HD cells; assay type: cell-based; details: MPA 30 min
Experimental: (§1) ChIP was performed as described elsewhere (Hawthorne et al., 2005) with minor modifications. Briefly, chromatin was sonicated to an average of about 500 bp. Sonicated chromatin was then immunoprecipitated using 4 μg of either an anti-ErbB-2 or an anti-Stat3 antibody and rabbit IgG as control. The IP was collected using Protein A beads (Upstate Biotechnology, Lake Placid, N.Y.), which were washed repeatedly to remove nonspecific DNA binding. The chromatin was eluted from the beads and crosslinks were removed overnight at 65° C. DNA was then purified and quantified using real-time PCR. For sequential ChIP experiments, Stat3 immunoprecipitates were eluted with DTT and then subjected to a second round of immunoprecipitation with ErbB-2 antibody or with IgG.
(§2) ChIP DNA was amplified by real-time PCR (qPCR), performed with an ABI Prism 7500 sequence detector using SYBR green PCR master mix (Applied Biosystems, Foster City, Calif.). The primers used were as follows: 5′-TTCCGGTGGTCTGGTTCCT-3′ (SEQ ID NO:12) and 5′-[…]-3′(SEQ ID NO:13) designed to amplify a region of the mouse cyclin D1 promoter containing two GAS sites (−971 and −874), 5′-[…]-3′(SEQ ID NO:14) and 5′-[…]-3′ (SEQ ID NO:15) designed to amplify a region of the human cyclin D1 promoter containing one GAS site (−984). These primers were designed with “Primer Express” real-time PCR primer design software (Applied Biosystems). […]

cyclin D1 promoter [1] = assay: Human cyclin D1 promoter luciferase reporter in C4HD cells; assay type: cell-based, mouse; details: for MPA-induced cyclin D1 promoter activation: pretreatment or cotransfection
Description: The luciferase reporter plasmid downstream the cyclin D1 human promoter region (−1745 cyclin D1-luc), and constructs truncated at positions −963, −261, −141, were kindly provided by Dr. R. Pestell (Northwestern University Medical School, Chicago, Ill.). These constructs were generated by truncation of the 1745-bp length promoter in order to sequentially exclude 5′ regions of the promoter. The −963 cyclin D1-luc construct excludes one GAS site (−984), the −261 cyclin D1-luc excludes three GAS sites (−984, −568 and −475) and the −141 cyclin D1-luc excludes four GAS sites (−984, −568, −475 and −239). The empty vector pA3 Luc was also provided by Dr. R. Pestell. The luciferase reporter plasmid containing four copies of the m67 high-affinity binding site (p4×m67-tk-luc) and the pTATA-tk-Luc reporter lacking the m67 insertion were a gift from Dr J. Darnell (The Rockefeller University, New York, N.Y.). The Renilla luciferase expression plasmid RLCMV was obtained from Promega (Madison, Wis.). Dominant negative Stat3 expression vector, Stat3Y705-F, which carries a tyrosine to phenylalanine substitution at codon 705 that reduces phosphorylation on tyrosine of the wild-type Stat3 protein, therefore inhibiting both dimerization and DNA binding of Stat3 (6,7,16) was kindly provided by Dr J. Darnell (New York, USA). The empty pcDNA3.1 vector was also a gift of Dr J. Darnell. Human wild-type ErbB-2 expression vector (hErbB-2WT) as well as the empty pMe18SM vector were a gift from by Dr. T. Yamamoto (University of Tokyo, Japan) (1). The GFP-tagged human ErbB-2 mutant which lacks the putative nuclear localization signal sequence (aa 676-KRRQQKIRKYTMRR-689) (SEQ ID NO:3), resulting in the sequence of KLM at the deletion junction (hErbB-2ΔNLS), was generously provided by Dr. M. C. Hung (The University of Texas M.D. Anderson Cancer Center, Houston, Tex.) (Giri et al., 2005). The empty pEGFP-N1 vector was obtained from BD Biosciences Clontech (Palo Alto, Calif.). The plasmid encoding the human wild-type hPR-B was kindly provided by Dr. K. Horwitz. In experiments assessing MPA capacity to induce the transcriptional activation of Stat3, C4HD and T47D cells were transiently transfected for 48 h with 1 μg of −1745 cyclin D1-luc reporter plasmid or the truncated −963, −261 and −141 constructs, or with 1 μg p4×m67-tk-luc and 10 ng of RL-CMV used to correct variations in transfection efficiency. As control, cells were transfected with 1 μg of either the pA3 Luc or pTATA-tk-Luc reporters. Cells were cotransfected with 2 μg of Stat3Y705-F when indicated. Total amount of transfected DNA was standardized by adding the empty pcDNA3.1 vector. […] Triplicate samples were analyzed for each datum point. Differences between experimental groups were analyzed by ANOVA followed by Tukey test between groups.

ErbB-2 [2] = assay: ErbB-2 cellular localization (subcellular fractionation/immunoblot, confocal microscopy) in C4HD cells; assay type: cell-based, mouse; details: MPA treatment of C4HD cells, 15 to 60 min
Experimental: (§3) Lysates were prepared from cells subjected to the different treatments and proteins were subjected to SDS-PAGE as previously described (21). Membranes were immunoblotted with the antibodies detailed in each experiment. When phospho(p)-protein antibodies were used, filters were reprobed with total protein antibodies. Signal intensities of pErbB-2, pStat3, pSrc, pPR, pJak1, and pJak2 bands were analyzed by densitometry and normalized to total protein bands. Similarly, signal intensities of PR, cyclin D1, Stat3, and ErbB-2 bands were normalized to actin or β tubulin bands. […]
(§4) Cells grown on glass coverslips were fixed and permeabilized in ice-cold methanol and were then blocked with PBS 1% BSA. ErbB-2 was localized using either a rabbit polyclonal (C-18) or a mouse monoclonal (F-11) ErbB-2 antibody (Santa Cruz Biotechnology) and Stat3 was detected using a mouse monoclonal antibody (124H6, Cell Signaling), followed by incubation with a goat anti-rabbit IgG-Alexa 488 (Molecular Probes, Eugene, Oreg.) secondary antibody for ErbB-2 (C-18) and with a rhodamine conjugated goat anti-mouse secondary antibody (Jackson ImmunoResearch Laboratories, West Grove, Pa.) for both ErbB2 (F-11) and Stat3. […] When cells were transfected with hErbB-2ΔNLS, green fluorescent protein from this expression vector was visualized by direct fluorescence imaging. […]

cyclin D1 promoter [3] = assay: Human cyclin D1 promoter luciferase reporter in T47D cells; assay type: cell-based; details: MPA 24 h
Description: (§5) The luciferase reporter plasmid downstream the cyclin D1 human promoter region (−1745 cyclin D1-luc), and constructs truncated at positions −963, −261, −141, were kindly provided by Dr. R. Pestell (Northwestern University Medical School, Chicago, Ill.). These constructs were generated by truncation of the 1745-bp length promoter in order to sequentially exclude 5′ regions of the promoter. The −963 cyclin D1-luc construct excludes one GAS site (−984), the −261 cyclin D1-luc excludes three GAS sites (−984, −568 and −475) and the −141 cyclin D1-luc excludes four GAS sites (−984, −568, −475 and −239). The empty vector pA3 Luc was also provided by Dr. R. Pestell. The luciferase reporter plasmid containing four copies of the m67 high-affinity binding site (p4×m67-tk-luc) and the pTATA-tk-Luc reporter lacking the m67 insertion were a gift from Dr J. Darnell (The Rockefeller University, New York, N.Y.). The Renilla luciferase expression plasmid RLCMV was obtained from Promega (Madison, Wis.). […] Triplicate samples were analyzed for each datum point. Differences between experimental groups were analyzed by ANOVA followed by Tukey test between groups.

human cyclin D1 promoter = assay: ChIP of Stat3 and ErbB-2 on the human cyclin D1 promoter in T47D cells; assay type: cell-based; details: MPA 30 min, primers flanking the −984 GAS site
Experimental: as §1, §2

ErbB-2 [4] = assay: ErbB-2 tyrosine phosphorylation by Western blot in C4HD cells; assay type: cell-based, mouse; details: MPA treatment of C4HD cells
Experimental: (§6) Primary cultures of epithelial cells from C4HD tumors were performed as described (2). T47D cells were obtained from American Type Culture Collection and T47D-Y cells were a generous gift from Dr. K. Horwitz (Denver, Colo.). To evaluate the effects of the pharmacological inhibitors on MPA-induced proteins phosphorylation or cyclin D1 expression, cells were preincubated for 90 min with RU486, PP2, Tyrphostin AG825 or Jak inhibitor I before addition of MPA. Cell proliferation was evaluated by [3H]-thymidine incorporation assay and cell cycle distribution was analyzed by flow cytometry, as described (22).
(§7) Lysates were prepared from cells subjected to the different treatments and proteins were subjected to SDS-PAGE as previously described (21). Membranes were immunoblotted with the antibodies detailed in each experiment. When phospho(p)-protein antibodies were used, filters were reprobed with total protein antibodies. Signal intensities of pErbB-2, pStat3, pSrc, pPR, pJak1, and pJak2 bands were analyzed by densitometry and normalized to total protein bands. Similarly, signal intensities of PR, cyclin D1, Stat3, and ErbB-2 bands were normalized to actin or β tubulin bands. […] The NEPER Nuclear and Cytoplasmic Extraction Reagents technique (Pierce Biotechnology) was performed as per manufacturer's instructions. […]

ErbB-2 [5] = assay: ErbB-2 tyrosine phosphorylation by Western blot in T47D cells; assay type: cell-based, human; details: MPA
Experimental: as §6
(§8) Lysates were prepared from cells subjected to the different treatments and proteins were subjected to SDS-PAGE as previously described (21). Membranes were immunoblotted with the antibodies detailed in each experiment. When phospho(p)-protein antibodies were used, filters were reprobed with total protein antibodies. Signal intensities of pErbB-2, pStat3, pSrc, pPR, pJak1, and pJak2 bands were analyzed by densitometry and normalized to total protein bands. Similarly, signal intensities of PR, cyclin D1, Stat3, and ErbB-2 bands were normalized to actin or β tubulin bands. […] The NEPER Nuclear and Cytoplasmic Extraction Reagents technique (Pierce Biotechnology) was performed as per manufacturer's instructions. Nuclear association between ErbB-2 and Stat3 was studied by performing coimmunoprecipitation experiments using 200 μg of nuclear protein lysates as described (22).

ErbB-2 [6] = assay: ErbB-2 cellular localization (subcellular fractionation/immunoblot, confocal microscopy) in T47D cells; assay type: cell-based, human; details: MPA treatment of T47D cells, 15 to 60 min
Experimental: as §3, §4

Stat3 [7] = assay: Stat3 phosphorylation and nuclear translocation in C4HD cells; assay type: cell-based, mouse
Experimental: as §8
siRNAs targeting ErbB-2, Stat3, and Pr were synthesized by Dharmacon, Inc (Lafayatte, Colo.) (ErbB-2siRNA: 5′GAUGGUGCUUACUCAUUGA3′ (SEQ ID NO:8), designed to specifically knockdown mouse ErbB2 but not human ErbB-2; Stat3siRNA: 5′[…]3′ (SEQ ID NO:9) targets mouse Stat3; and 5′[…]3′ (SEQ ID NO:10) targets human Stat3; PRsiRNA: 5′[…]3′(SEQ ID NO:11)). […] Transfection of siRNAs duplexes was performed by using the DharmaFECT transfection reagent following the manufacturer's direction for 3 days. For reconstitution experiments cotransfection of 25 nM ErbB-2 siRNA with 2 μg expression vectors was performed using DharmaFECT Duo transfection reagent (Dharmacon).
(§9) Cells grown on glass coverslips were fixed and permeabilized in ice-cold methanol and were then blocked with PBS 1% BSA. ErbB-2 was localized using either a rabbit polyclonal (C-18) or a mouse monoclonal (F-11) ErbB-2 antibody (Santa Cruz Biotechnology) and Stat3 was detected using a mouse monoclonal antibody (124H6, Cell Signaling), followed by incubation with a goat anti-rabbit IgG-Alexa 488 (Molecular Probes, Eugene, Oreg.) secondary antibody for ErbB-2 (C-18) and with a rhodamine conjugated goat anti-mouse secondary antibody (Jackson ImmunoResearch Laboratories, West Grove, Pa.) for both ErbB2 (F-11) and Stat3. Negative controls were carried out using PBS instead of primary antibodies, or 5× competitive peptide (Santa Cruz Biotechnology) when ErbB-2 (C-18) was used. When cells were transfected with hErbB-2ΔNLS, green fluorescent protein from this expression vector was visualized by direct fluorescence imaging. […] FIGS. 2A, 3B and C, illustrate a few cells representative of the ones examined. Cells were analyzed using a Nikon Eclipse E800 confocal laser microscopy system (22).

Stat3 [8] = assay: Stat3 phosphorylation and nuclear translocation in T47D cells; assay type: cell-based, human; details: MPA treatment of T47D cells
Experimental: as §8, §9

cyclin D1 = assay: Cyclin D1 protein levels by Western blot in C4HD cells; assay type: cell-based, mouse; details: MPA treatment of C4HD cells
Experimental: as §6, §7

Stat3 [9] = assay: m67 Stat3 binding site luciferase reporter in C4HD cells; assay type: cell-based, mouse; details: cotransfection
Description: as §5

Stat3 [10] = assay: m67 Stat3 binding site luciferase reporter in T47D cells; assay type: cell-based, human; details: cotransfection
Description: as §5

Compound	binding of nuclear Stat3 and ErbB-2 to the mouse cyclin D1 promoter (mouse cyclin D1 promoter)	increase in cyclin D1 promoter activity (cyclin D1 promoter [1]; MPA 24 h, versus cells untreated with MPA) [fold]	ErbB-2 nuclear translocation (ErbB-2 [2])	increase in cyclin D1 promoter activity (cyclin D1 promoter [3]; versus cells untreated with MPA) [fold]	occupancy by Stat3 and ErbB-2 of the human cyclin D1 promoter (human cyclin D1 promoter)	ErbB-2 phosphorylation at Tyr 1272 and Tyr 927 (ErbB-2 [4])	ErbB-2 phosphorylation at Tyr 1222 or Tyr 877 (ErbB-2 [5]; PR-null T47D cells (T47D-Y))	ErbB-2 phosphorylation at Tyr 1222 and Tyr 877 (ErbB-2 [5]; T47D-Y cells transfected with human PR-B (T47D-Y-PR-B))	ErbB-2 nuclear translocation (ErbB-2 [6])	Stat3 nuclear translocation (Stat3 [7]; MPA treatment of C4HD cells, 30 and 60 min)	nuclear colocalization of ErbB-2 and Stat3 (Stat3 [7]; MPA treatment of C4HD cells, 30 min, confocal)	Stat3 nuclear translocation (Stat3 [8]; 30 and 60 min)	nuclear colocalization of ErbB-2 and Stat3 (Stat3 [8]; 30 min, confocal)	cyclin D1 protein levels (cyclin D1)	MPA-induced cyclin D1 promoter activation (cyclin D1 promoter [1]; MPA 24 h)	MPA-induced cyclin D1 promoter activation (cyclin D1 promoter [3]; pretreatment or cotransfection)	basal levels of Stat3 transcriptional activity (cyclin D1 promoter [1]; absence of MPA)	MPA-induced Stat3 transcriptional activation (m67 reporter) (Stat3 [9])	MPA-induced Stat3 transcriptional activation (m67 reporter) (Stat3 [10])	Stat3 Tyr705 phosphorylation upon MPA stimulation (Stat3 [7]; Transfected C4HD cells versus wild-type C4HD cells also stimulated with MPA)
CC(=O)O[C@]1(C(C)=O)CC[C@H]2[C@@H]3C[C@H](C)C4=CC(=O)CC[C@]4(C)[C@H]3CC[C@@]21C [MPA, Medroxyprogesterone acetate]	significant and specific	3	resulted in ErbB-2 nuclear localization; also recorded: induced a strong ErbB-2 protein nuclear translocation	3	striking increase	induces a rapid phosphorylation	no effect	markedly enhanced	resulted in ErbB-2 nuclear localization; also recorded: induced a strong ErbB-2 protein nuclear translocation	induced nuclear translocation of Stat3; also recorded: present at the nuclear compartment and strongly phosphorylated at Tyr 705	strong nuclear colocalization	induced nuclear translocation of Stat3; also recorded: present at the nuclear compartment and strongly phosphorylated at Tyr 705	strong nuclear colocalization	significant increase						
Stat3Y705-F: Dominant negative Stat3 expression vector, tyrosine to phenylalanine substitution at codon 705															absolutely inhibited	absolutely inhibited				
hErbB-2WT: Human wild-type ErbB-2 expression vector															significantly enhanced		did not modulate	significantly enhanced	significantly enhanced	higher levels

— patent US9427458B2, “Methods for inhibiting cancer cell proliferation” (Consejo Nacional de Investigaciones Cientificas y Tecnicas, …, priority 2010, dated 2016)
